# Assay results: paper doi:10.1101/187716v3 (bioRxiv, 2017)
# Test system: orthotopic 4T1 breast tumors
# Experiment: PET-CT imaging of tumor accumulation in orthotopic 4T1 breast tumor mice
# Format: in vivo, Balb/c mice
# Settings: scans at 10 min, 2, 6, 12, 24, 48 h
substance,measurement,value
Cys-Tyr-Ahx-LinTT1 [LinTT1-Tyr-^124I-PS],time post injection at which tumor accumulation is seen by PET,2 h
